Laboratory results taken from publication PMC13626057, “Sensitizing tumor response to topoisomerase I antibody-drug conjugate by selective CDK7 inhibition” (Science Advances, 2026).
Where two headings read alike, the source gives them in different places.

Columns and labels:
[1] = system: MCF-7 cells; assay: MCF-7 cell viability (ATP Lite system); format: cell-based; settings: Homo sapiens, MCF7, read-out: IC50 MCF-7 cell growth
Description: Fig. 2. Q901 alters RNAPII phosphorylation and transcriptional activity. (A) MCF-7 cells were treated with Q901 at the indicated concentrations for 72, 96, or 120 hours. Cell viability was measured using the ATP Lite system. Inhibition (%) was plotted against the log-transformed Q901 concentration (μM) (n = 3 to 4). Data represent means ± SD. (B and C) RNAPII ChIP-seq was performed following treatment with 100 nM Q901 for the indicated duration. (B) Volcano plot of pan RNAPII ChIP-seq signals after Q901 treatment [n = 2; blue dot indicates P value ≤ 0.05 and log2 fold change (log2FC) ≤ −0.58; red dot indicates P value ≤ 0.05 and log2FC ≥ 0.58]. […] CDK7 ChIP-seq was performed with 100 nM Q901 for the indicated durations.
Cells were seeded into 96-well plates and treated with compounds at the indicated concentrations and time points. After incubation, cell viability was measured using either CellTiter-Glo luminescent cell viability assay (Promega, Madison, WI, USA, G7572) according to the manufacturer’s instructions. Plates were equilibrated to RT for 30 min before adding 50 μl of CellTiter-Glo reagent to each well. Luminescence was measured using the EnVision Multi Label Reader (PerkinElmer, Waltham, MA, USA). Dose-response curves were fitted using a nonlinear regression model with a sigmoidal dose-response function in GraphPad Prism 10.4.1. The absolute IC5_0 values were calculated using the dose-response curves generated in XL-fit 5 (IDBS Software, Woking, UK) and fitted with the four-parameter logistic equation: fit = A + ((B − A)/{1 + [(C/x)^D]}), where A and B represent the bottom and top plateaus of the curve, respectively, C is the IC5_0 value, x is the compound concentration, and D is the Hill slope.

[2] = target: T1, recombinant CDK7/cyclin H/MAT1 (CAK) trimeric complex (Homo sapiens, UniProt P50613); assay: Covalent binding site evaluation by mass spectrometry; settings: incubated 1 hour with CAK complex, Arg-C or Arg-C/trypsin digestion
T1 construct: purchased Thermo Fisher Scientific PV3868
T1 sequence (P50613 whole entry): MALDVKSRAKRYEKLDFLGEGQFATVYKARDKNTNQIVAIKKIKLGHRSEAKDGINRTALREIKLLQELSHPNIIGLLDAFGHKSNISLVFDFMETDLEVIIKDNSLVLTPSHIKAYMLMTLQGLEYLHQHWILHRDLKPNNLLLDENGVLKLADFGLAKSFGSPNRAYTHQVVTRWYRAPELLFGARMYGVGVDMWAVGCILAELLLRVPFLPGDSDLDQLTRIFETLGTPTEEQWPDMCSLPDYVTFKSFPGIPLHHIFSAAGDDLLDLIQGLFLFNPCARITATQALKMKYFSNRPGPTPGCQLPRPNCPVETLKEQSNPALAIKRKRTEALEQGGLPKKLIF
T1 sequence (P51946 whole entry partner): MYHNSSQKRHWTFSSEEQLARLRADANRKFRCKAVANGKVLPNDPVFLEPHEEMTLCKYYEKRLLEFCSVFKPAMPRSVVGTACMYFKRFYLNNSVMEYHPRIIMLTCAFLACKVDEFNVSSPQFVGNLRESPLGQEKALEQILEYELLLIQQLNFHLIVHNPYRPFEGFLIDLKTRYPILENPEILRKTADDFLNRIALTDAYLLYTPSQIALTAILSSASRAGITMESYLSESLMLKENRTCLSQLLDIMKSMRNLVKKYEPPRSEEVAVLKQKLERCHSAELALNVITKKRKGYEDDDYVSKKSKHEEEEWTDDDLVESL
T1 sequence (P51948 whole entry partner): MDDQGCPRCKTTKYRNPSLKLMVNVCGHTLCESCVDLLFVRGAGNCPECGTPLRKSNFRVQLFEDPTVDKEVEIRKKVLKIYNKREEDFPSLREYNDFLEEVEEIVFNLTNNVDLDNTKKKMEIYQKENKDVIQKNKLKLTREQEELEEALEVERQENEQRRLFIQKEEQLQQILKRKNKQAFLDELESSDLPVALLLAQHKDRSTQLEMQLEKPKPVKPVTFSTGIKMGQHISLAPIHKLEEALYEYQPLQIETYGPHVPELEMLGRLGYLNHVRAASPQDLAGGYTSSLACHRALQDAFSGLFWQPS
Description: The recombinant CAK complex (CDK7/cyclin H/MAT1; Thermo Fisher Scientific, PV3868) was incubated with Q901 or DMSO for 1 hour at room temperature (RT), and the reaction complexes were resolved by SDS–polyacrylamide gel electrophoresis (PAGE). The bands corresponding to CDK7 were excised for in-gel digestion. Denaturation, reduction, and alkylation were performed using 8 M urea, TCEP, and iodoacetamide at RT, followed by Arg-C digestion (1:100 Arg-C:protein ratio, at 37°C for 18 hours) and Arg-C/trypsin digestion (1:100 Arg-C:protein ratio and 1:50 trypsin:protein ratio, at 37°C for 18 hours). The extracted peptides were loaded and eluted using a high-performance liquid chromatography (HPLC) system and then separated through a linear gradient (3 to 60% mobile phase B in 120 min) at a flow rate of 0.3 μl/min using EASY-Spray HPLC Columns (75 μm/500 mm) (Thermo Fisher Scientific, ES903) at 40°C and introduced into an Orbitrap Exploris 240 LC-MS/MS System (Thermo Fisher Scientific, BRE725535) in positive ion mode and run in data-independent acquisition (DIA) mode. Data acquisition was performed over a mass/charge ratio (m/z) range of 390 to 1010, and peak integrations for fragment ions of the most intense charge state of the doubly carbamidomethylated Cys^312-containing peptide were analyzed using the Skyline software 24.1 (Seattle, WA, USA). […]

[3] = system: H292 xenograft; assay: H292 cell line-derived xenograft efficacy; format: in vivo, BALB/c nude mice; settings: for tumor growth inhibition (TGI): by day 28
Description: BALB/c nude mice were purchased from the Shanghai SIPPR/BK Laboratory Animal Co. Ltd. (Shanghai, China). For in vivo efficacy studies, HCT116 cells or H292 cells were resuspended in PBS and Matrigel (1:1) and implanted subcutaneously. When tumors reached an average size of 117 mm^3 (HCT116) or 140 mm^3 (H292), mice were randomized into four groups (n = 8 per group) and treated with Q901 (3 or 10 mg/kg, intraperitoneally once daily), T-DXd (10 mg/kg, single intravenous administration on day 0), SG (3 mg/kg, single intravenous administration on days 1 and 8), or a combination thereof. Tumor volumes were measured twice weekly after randomization in two dimensions, using a caliper. The TGI was calculated for each group using the formula: TGI (%) = [1 − (Ti − T0)/(Vi − V0)] × 100, where Ti is the average tumor volume of the treatment group on the given day, T0 is the average tumor volume of the treatment group on the day when the treatment was started, Vi is the average tumor volume of the vehicle control group on the same day with Ti, and V0 is the average tumor volume of the vehicle group on the day of treatment start. Statistical significance was calculated using a two-way analysis of variance (ANOVA) followed by Tukey’s multiple comparison test in GraphPad Prism 10.4.1.

[4] = system: other CDKs; assay: Radiometric 28 CDK titration assay, selectivity over other CDKs; format: biochemical; settings: ranging from 242-fold to over 1000-fold
Description: (§1) A radiometric protein kinase assay service was provided by Reaction Biology (Freiburg, Germany) to measure the kinase activity of 410 protein kinases and 28 CDKs.
(§2) In the 28 CDK titration assay, the residual activity and IC50 values of the compound were calculated using the Quattro Workflow V3.1.1 (Quattro Research GmbH, Munich, Germany). The ATP concentration used in each kinase reaction was set to the apparent ATP-Km value. Dose-response curve fitting was performed using a four-parameter logistic regression model in GraphPad Prism 10.4.1 (GraphPad Software, Boston, MA, USA).

[5] = system: HCT116 xenograft; assay: HCT116 cell line-derived xenograft efficacy; format: in vivo, BALB/c nude mice; settings: by day 28; T-DXd 10 mg/kg single iv, Q901 10 mg/kg ip once daily
Description: BALB/c nude mice were purchased from the Shanghai SIPPR/BK Laboratory Animal Co. Ltd. (Shanghai, China). For in vivo efficacy studies, HCT116 cells or H292 cells were resuspended in PBS and Matrigel (1:1) and implanted subcutaneously. […] Tumor volumes were measured twice weekly after randomization in two dimensions, using a caliper. The TGI was calculated for each group using the formula: TGI (%) = [1 − (Ti − T0)/(Vi − V0)] × 100, where Ti is the average tumor volume of the treatment group on the given day, T0 is the average tumor volume of the treatment group on the day when the treatment was started, Vi is the average tumor volume of the vehicle control group on the same day with Ti, and V0 is the average tumor volume of the vehicle group on the day of treatment start. Statistical significance was calculated using a two-way analysis of variance (ANOVA) followed by Tukey’s multiple comparison test in GraphPad Prism 10.4.1.

[6] = target: T2, recombinant human CDK7/cyclin H/MNAT1 (Homo sapiens, UniProt P50613); assay: LANCE Ultra TR-FRET CDK7 kinase assay (cell-free enzymatic assay); format: biochemical; settings: eight-point dilution, top 3000 nM, read-out: IC50 against CDK7
T2 construct: His-tag; purchased Invitrogen PR6749B
T2 sequence (P50613 whole entry): as the sequence (P50613 whole entry) above
T2 sequence (P51946 whole entry partner): as the sequence (P51946 whole entry partner) above
T2 sequence (P51948 whole entry partner): as the sequence (P51948 whole entry partner) above
Description: CDK7 kinase activity was measured using a LANCE Ultra TR-FRET kinase assay (Revvity, formerly PerkinElmer, Waltham, MA, USA) according to the manufacturer’s protocol. Briefly, recombinant human CDK7/cyclin H/MNAT1 His-tag protein (Invitrogen, PR6749B) was incubated with compounds (Q901, Q901R, and QS0551508) in kinase buffer in a 384-well format. The assay used a ULight-labeled peptide substrate and a europium-labeled anti-phospho antibody for time-resolved fluorescence resonance energy transfer (TR-FRET) detection.
TR-FRET signals were measured using an EnVision multimode plate reader (Revvity, EnVision 2105 Alpha) with LANCE/DELFIA detection settings.
Compounds were tested using an eight-point serial dilution (top concentration: 3000 nM, 1:4 dilution). Signals were normalized to DMSO-treated controls to calculate residual kinase activity (%), and dose-response curves were generated using GraphPad Prism 10.4.1.

[7] = system: HCT116 cells; assay: HCT116 cell viability, single agent and combination (SynergyFinder, ATP Lite); format: cell-based; settings: Homo sapiens, HCT-116; 72 hours, alone
Description: (§3) SynergyFinder was performed by Oncolines (Oss, Netherlands). […] The absolute IC5_0 values were determined from the dose-response curves generated in XL-fit 5 using the four-parameter logistic equation: fit = A + ((B − A)/{1 + [(C/x)^D]}), where A and B represent the bottom and top plateaus of the curve, C is the IC5_0 value, x is the compound concentration, and D is the Hill slope.

[8] = system: H292 cells; assay: H292 cell viability, single agent and combination (SynergyFinder, ATP Lite); format: cell-based; settings: 72 hours
Description: as §3

[9] = target: T3, CDK7 (Homo sapiens, UniProt P50613); assay: Radiometric protein kinase assay (PanQinase; 410-kinase panel and 28 CDK titration); format: biochemical; settings: ATP at apparent ATP-Km
T3 construct: purchased Reaction Biology (Freiburg, Germany), assay service
T3 sequence (P50613 whole entry): as the sequence (P50613 whole entry) above
T3 sequence (P51946 whole entry partner): as the sequence (P51946 whole entry partner) above
T3 sequence (P51948 whole entry partner): as the sequence (P51948 whole entry partner) above
Description: as §1
In the kinase inhibition assay, the residual activity for each compound was calculated using the following formula: Residual activity (%) = 100 × [(signal of compound − low control)/(high control − low control)]. The selectivity score of the compound at the tested concentrations was calculated for residual activity < 50%, that is, inhibition of >50%. The selectivity score for a particular compound at a particular concentration was calculated using the following formula: Selectivity score = (count of data points < 50%)/(total number of data points).
as §2

[10] = target: T4, CDK8 (Homo sapiens, UniProt P49336); assay: Radiometric 28 CDK titration assay; format: biochemical
T4 construct: purchased Reaction Biology (Freiburg, Germany), assay service
T4 sequence (P49336 whole entry): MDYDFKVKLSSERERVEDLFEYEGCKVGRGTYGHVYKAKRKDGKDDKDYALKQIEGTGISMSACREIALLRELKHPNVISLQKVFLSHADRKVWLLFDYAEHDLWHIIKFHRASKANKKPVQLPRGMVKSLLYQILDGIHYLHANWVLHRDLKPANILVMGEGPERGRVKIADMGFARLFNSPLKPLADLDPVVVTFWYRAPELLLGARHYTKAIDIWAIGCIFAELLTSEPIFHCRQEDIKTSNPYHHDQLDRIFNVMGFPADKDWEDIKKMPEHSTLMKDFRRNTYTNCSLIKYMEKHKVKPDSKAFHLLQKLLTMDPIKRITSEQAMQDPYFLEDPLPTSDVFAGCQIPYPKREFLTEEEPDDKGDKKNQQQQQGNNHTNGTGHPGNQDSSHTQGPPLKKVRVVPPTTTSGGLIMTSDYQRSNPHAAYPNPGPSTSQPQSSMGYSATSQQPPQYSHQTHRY
T4 sequence (P24863 whole entry partner): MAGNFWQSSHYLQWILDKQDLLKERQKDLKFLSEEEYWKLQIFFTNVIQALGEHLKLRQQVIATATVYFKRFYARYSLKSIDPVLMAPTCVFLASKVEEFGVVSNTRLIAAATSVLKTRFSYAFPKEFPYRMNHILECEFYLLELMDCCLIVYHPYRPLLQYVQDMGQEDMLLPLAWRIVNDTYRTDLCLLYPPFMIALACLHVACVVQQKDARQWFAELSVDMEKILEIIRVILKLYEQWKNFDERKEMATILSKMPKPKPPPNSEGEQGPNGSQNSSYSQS
Description: as §1, §2

[11] = target: T5, CDK12 (Homo sapiens, UniProt Q9NYV4); assay: Radiometric 28 CDK titration assay; format: biochemical
T5 construct: purchased Reaction Biology (Freiburg, Germany), assay service
Description: as §1, §2

[12] = target: T6, CDK9 (Homo sapiens, UniProt P50750); assay: Radiometric 28 CDK titration assay; format: biochemical
T6 construct: purchased Reaction Biology (Freiburg, Germany), assay service
T6 sequence (P50750 whole entry): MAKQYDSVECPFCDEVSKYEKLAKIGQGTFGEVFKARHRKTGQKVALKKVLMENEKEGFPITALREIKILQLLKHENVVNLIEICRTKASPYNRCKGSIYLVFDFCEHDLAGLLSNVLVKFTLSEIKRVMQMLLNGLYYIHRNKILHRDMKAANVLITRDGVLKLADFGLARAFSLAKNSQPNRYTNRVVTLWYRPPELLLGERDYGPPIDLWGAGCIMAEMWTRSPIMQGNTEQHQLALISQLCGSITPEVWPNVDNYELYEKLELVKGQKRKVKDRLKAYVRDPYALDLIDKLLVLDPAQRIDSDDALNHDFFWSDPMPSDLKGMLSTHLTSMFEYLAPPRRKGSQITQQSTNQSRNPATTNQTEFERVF
T6 sequence (O60563 whole entry partner): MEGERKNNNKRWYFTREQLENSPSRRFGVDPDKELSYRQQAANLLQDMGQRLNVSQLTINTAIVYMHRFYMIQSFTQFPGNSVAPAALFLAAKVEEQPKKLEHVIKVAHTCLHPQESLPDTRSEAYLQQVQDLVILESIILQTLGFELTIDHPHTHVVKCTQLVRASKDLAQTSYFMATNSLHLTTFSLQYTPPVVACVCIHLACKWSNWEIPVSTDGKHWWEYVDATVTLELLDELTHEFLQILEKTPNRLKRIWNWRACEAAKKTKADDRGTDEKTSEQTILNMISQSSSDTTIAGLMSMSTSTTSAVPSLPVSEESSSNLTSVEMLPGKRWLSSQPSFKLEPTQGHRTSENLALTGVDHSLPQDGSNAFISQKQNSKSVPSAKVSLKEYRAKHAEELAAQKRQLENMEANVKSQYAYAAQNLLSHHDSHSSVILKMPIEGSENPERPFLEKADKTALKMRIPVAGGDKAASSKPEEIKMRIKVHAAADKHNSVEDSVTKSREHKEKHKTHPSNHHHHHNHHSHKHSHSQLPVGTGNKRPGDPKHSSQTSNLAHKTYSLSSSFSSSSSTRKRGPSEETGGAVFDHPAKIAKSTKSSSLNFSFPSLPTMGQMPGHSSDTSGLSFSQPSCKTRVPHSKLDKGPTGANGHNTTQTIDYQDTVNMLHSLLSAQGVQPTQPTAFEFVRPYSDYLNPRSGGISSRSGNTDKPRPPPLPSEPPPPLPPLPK
Description: as §1, §2

[13] = target: T7, CDK13 (Homo sapiens, UniProt Q14004); assay: Radiometric 28 CDK titration assay; format: biochemical
T7 construct: purchased Reaction Biology (Freiburg, Germany), assay service
Description: as §1, §2

[14] = first regimen: SG 3 mg/kg, Q901 10 mg/kg
[15] = second regimen: SG 10 mg/kg, Q901 3 mg/kg

C=C(F)C(=O)Nc1ccc2c(-c3ccccc3CNc3nc(NC[C@H]4CCNC[C@@H]4O)nc4c(C(C)C)cnn34)nccc2c1 [Q901]
IC50 ([1]; 72 hours): 95 nM
IC50 ([1]; 96 hours): 16 nM
IC50 ([1]; 120 hours): 5 nM
reduction of intensity of Cys312-containing peptides (residues 310 to 329 and 310 to 318) [2]: ~99%
tumor growth inhibition (TGI) [3, 14]: 80%
tumor growth inhibition (TGI) [3, 15]: 61%
IC50 values for other CDKs higher than that for CDK7 [4]: ≥ 242 fold
tumor growth inhibition (TGI) [5]: 81%
IC50 [6]: 10.4 nM
IC50 [7]: 8.4 nM
IC50 ([8]; Homo sapiens, NCI-H292, Single treatment / monotherapy): 12 nM
inhibition at 1 µM ([9]; 1 μM, 1 hour): 99%
remaining activity at 1 µM ([9]; 1 μM, 1 hour, read-out: residual activity value CDK7): 1%
IC50 ([9]; in vitro): 10 nM
fold difference in inhibition of CDK8 compared to CDK7 [10]: > 1000 fold
IC50 ([10]; ATP at apparent ATP-Km): > 10000 nM
fold difference in inhibition of CDK12 compared to CDK7 [11]: 207 fold
fold difference in inhibition of CDK9 compared to CDK7 [12]: 715 fold
fold difference in inhibition of CDK13 compared to CDK7 [13]: 641 fold

sacituzumab govitecan [SG]
time at which tumors showed regrowth ([3]; H292 xenograft, SG alone): > 14 days
tumor growth inhibition (TGI) [3, 14]: 47%
tumor growth inhibition (TGI) [3, 15]: 72%
H292 IC50 ([8]; monotherapy): 0.5 µg/mL
